Results on 21 compounds are retold here after patent publication US20230390274A1 (EPIRIUM BIO INC., priority 2020, published 2023).

Molecules are shown by their SMILES. In brackets after ≈: the same amount, converted by molar mass. Where two headings read alike, the source gives them in different places.

Data set [1] can be described thus: Compound stability in mouse liver microsomes. The class given is in vitro ADME. The note with it: 37° C. How it is done:
A microsomal mixture comprising mouse liver microsomes and a potassium phosphate buffer was prepared at a concentration of 1.428 mg/mL in 2 mL tubes. 1.6 μL of test compound or imipramine as a positive control was added to the mixture, and 70 μL was transferred to a 96 well plate and pre-incubated at 37° C. for 5 minutes. After pre-incubation, […] 30 μL of NADPH (3.33 mM in potassium phosphate buffer) was added. The reaction mixtures were incubated at 37° C. for 15 and 45 minutes. Reactions without NADPH and buffer controls (minus NADPH) were conducted to rule out non-NADPH metabolism and chemical instability in the incubation buffer. The reactions were quenched with 100 μL ice cold acetonitrile containing an internal standard. The plates were centrifuged at 4000 RPM for 15 minutes and 100 μL aliquots were analyzed for parent compound disappearance by LC-MS/MS. The peak area ratios of analyte versus internal standard were used to calculate the percent remaining at the end of 45 minutes.

The nature of data set [2]: Pharmacokinetic study in rat, intravenous 1 mg/kg. The class given is in vivo. How it is done: (§1) Each mice PK study consisted of nine male C57BL/6 mice per group with sparse sampling design (n=3 mice per time point). The animals from intravenous groups were dosed with solution formulation of compounds via tail vein at 1 mg/kg dose. Ten compounds were screened in mice and one compound (the compound of Formula IV) was dosed in rat (n=3; serial sampling) following intravenous dose administration at 1 mg/kg dose. The solution formulation for compounds was prepared in 5% v/v DMA, 25% v/v PEG-400, and 70% v/v HPBCD (30% w/v); 15% v/v DMA, 5% Solutol HS-15, and 80% 1:1 PEG-300: Normal saline (2.25%); or 10% v/v DMA, 25% PEG-400, and 65% HPBCD (30% w/v solution). The dosing volume was 1 and 5 mL/kg for intravenous dose in rat and mice respectively. Blood samples (approximately 60 μL from mice and 120 μL from rats) were collected under light isoflurane anesthesia from a set of three mice at 0, 0.08, 0.25, 0.5, 1, 2, 4, 8, 12, and 24 hours post-dose. Plasma was harvested by centrifugation of blood and stored at −70±10° C. until analysis. Fit-for purpose LC-MS/MS method was developed and samples were processed by protein precipitation method. Non-Compartmental-Analysis tool of Phoenix WinNonlinR (Version 8.0) was used to assess the pharmacokinetic parameters. The areas under the concentration time curve (AUClast and AUCinf) were calculated by linear trapezoidal rule. The terminal elimination rate constant, Ke was determined by regression analysis of the linear terminal portion of the log plasma concentration-time curve. The terminal half-life (T1/2) was estimated at 0.693/ke. CLIV=Dose/AUCinf; Vss=MRT×CLIV.

Data set [3] is described as follows: Pharmacokinetic study in mice, intravenous 1 mg/kg. The class given is in vivo, C57BL/6 mice. How it is done: as §1
Data set [4] has as its target 15-PGDH/HPGD (Homo sapiens (Human), UniProt P15428). Briefly: hPGDH inhibitor screening biochemical assay. The note with it: read-out: hPGDH: IC50. An outline of the steps: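 10 nM recombinant 15-PGDH was preincubated with compound (10-point) for 10 min at 37° C. in 50 mM Tris-HCl pH 7.5, 0.01% Tween 20. Then 15 μM PGE2 and 0.25 mM NAD+ were added for 10 min at rt. NADH fluorescence (ex/em 340/485 nm) gave % inhibition versus 1% DMSO and a four-parameter IC50.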

The nature of data set [5]: Solubility at pH 7.4. It is filed as physicochemical. The note with it: aqueous buffer, Table 1, 6-5 ring core.
Where [6] appears, read: Table 1, PGDH inhibitors with a 6-5 ring core.
Where [7] appears, read: Table 2, PGDH inhibitors with a phenyl core.

Chain of 15-PGDH/HPGD (P15428 whole entry): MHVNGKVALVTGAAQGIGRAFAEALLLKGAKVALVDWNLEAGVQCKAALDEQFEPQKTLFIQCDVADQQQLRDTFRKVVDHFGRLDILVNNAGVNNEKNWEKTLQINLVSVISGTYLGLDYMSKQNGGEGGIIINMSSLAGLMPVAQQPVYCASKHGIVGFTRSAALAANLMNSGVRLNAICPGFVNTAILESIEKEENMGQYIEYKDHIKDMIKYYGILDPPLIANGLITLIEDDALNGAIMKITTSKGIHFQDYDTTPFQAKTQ

Take `O=C(c1cnc2c(ccn2-c2ccc(CO)cc2)c1)N1CCCCC1` [Formula IV]: the “% Remaining at 45 Minutes (Mouse Liver Microsomes + NADPH)” value (“% Remaining at 45 Minutes” for short) in data set [1] is listed as 71%. In data set [2], this compound had an AUCinf of 106.55 ng·h/mL, an AUClast of 105.58 ng·h/mL, a C0/Cmax of 985.98 ng/mL and a CL of 158.60 mL/min/kg. Moreover, in data set [2], the T1/2 came out at 7.2 min and the Vss (in general, the apparent volume that relates the amount in the body to the concentration in plasma or blood) was found to be 0.86 L/kg.
Take `NC(=O)c1ccc(-n2ccc3cc(C(=O)N4CCC(F)CC4)cnc32)cc1` [Formula IX]: the “% Remaining at 45 Minutes” value in data set [1] was 70%. In data set [3], the AUCinf came out at 156.23 ng·h/mL, the AUClast was 156.13 ng·h/mL, the C0/Cmax came to 749.07 ng/mL and the CL is 106.68 mL/min/kg. For the same compound, in data set [3], the T1/2 was determined as 12 min and the Vss is reported as 1.52 L/kg.
For `CNC(=O)c1ccc(-n2ccc3cc(C(=O)N4CCCCC4)cnc32)cc1` [Formula VIII], in data set [1], the “% Remaining at 45 Minutes” value turned out to be 80%. In data set [3], this compound registered an AUCinf of 156.49 ng·h/mL, an AUClast of 156.43 ng·h/mL, a C0/Cmax of 1012.93 ng/mL and a CL of 106.5 mL/min/kg. Besides, in data set [3], the T1/2 came out at 26.4 min and the Vss is recorded as 1.58 L/kg.
Take `CNC(=O)c1ccc(-n2ccc3cc(C(=O)N4CCC(F)CC4)cnc32)cc1` [Formula VII]: the “% Remaining at 45 Minutes” value in data set [1] was determined as 88%. In data set [3], the AUCinf was determined as 214.11 ng·h/mL, the AUClast turned out to be 211.95 ng·h/mL, the C0/Cmax is listed as 633.31 ng/mL and the CL is reported as 77.84 mL/min/kg. In data set [3], this compound showed a T1/2 of 20.4 min and a Vss of 1.56 L/kg.
With `Cc1c(C(=O)N2CCC(F)CC2)cnc2c1ccn2-c1ccc(C(N)=O)cc1` [Formula VI], in data set [1], the “% Remaining at 45 Minutes” value is 89%. Moreover, in data set [3], the AUCinf was found to be 259.43 ng·h/mL, the AUClast was determined as 256.19 ng·h/mL, the C0/Cmax is given as 571.21 ng/mL and the CL came to 64.24 mL/min/kg. In data set [3], this compound registered a T1/2 of 42 min and a Vss of 2.52 L/kg.
`CN(C)C(=O)c1ccc(-n2ccc3cc(C(=O)N4CCCCC4)cnc32)cc1` [Formula V]: in data set [1], the “% Remaining at 45 Minutes” value stood at 86%. In data set [3], this compound yielded an AUCinf of 263.35 ng·h/mL, an AUClast of 262.46 ng·h/mL, a C0/Cmax of 1442.49 ng/mL and a CL of 63.29 mL/min/kg. In data set [3], this compound had a T1/2 of 18 min and a Vss of 0.76 L/kg.
Consider `NC(=O)c1ncc(-n2ccc3cc(C(=O)N4CCCCC4)cnc32)cn1` [Formula XII], for which the “% Remaining at 45 Minutes” value in data set [1] amounted to 81%. In data set [3], this compound returned an AUCinf of 129.4 ng·h/mL, an AUClast of 117.19 ng·h/mL, a C0/Cmax of 490.48 ng/mL and a CL of 128.8 mL/min/kg. In data set [3], this compound gave a T1/2 of 38.4 min and a Vss of 5.16 L/kg.
Regarding `O=C(c1cnc2c(ccn2-c2ccc(O)nc2)c1)N1CCCCC1` [Formula XIV], the “% Remaining at 45 Minutes” value in data set [1] worked out at 74%. In data set [3], this compound had an AUCinf of 96.33 ng·h/mL, an AUClast of 88.28 ng·h/mL, a C0/Cmax of 165.86 ng/mL and a CL of 173.02 mL/min/kg. In data set [3], this compound came in with a T1/2 of 16.2 min and a Vss of 3.99 L/kg.
With `COCCNC(=O)c1ccc(-n2ccc3cc(C(=O)N4CCC(F)CC4)cnc32)cc1` [Formula XI], the “% Remaining at 45 Minutes” value in data set [1] is given as 84%. For the same compound, in data set [3], the AUCinf amounted to 131.66 ng·h/mL, the AUClast amounted to 130.44 ng·h/mL, the C0/Cmax turned out to be 663.41 ng/mL and the CL came to 126.59 mL/min/kg. In data set [3], the T1/2 was 9.6 min and the volume of distribution (Vss) was 1.39 L/kg.
Regarding `COCCNC(=O)c1ccc(-n2ccc3cc(C(=O)N4CCCCC4)cnc32)cc1` [Formula X], in data set [1], the “% Remaining at 45 Minutes” value was found to be 89%. For the same compound, in data set [3], the AUCinf worked out at 147.4 ng·h/mL, the AUClast came to 146.28 ng·h/mL, the C0/Cmax is listed as 1272.79 ng/mL and the CL is listed as 113.07 mL/min/kg. In data set [3], this compound yielded a T1/2 of 4.2 min and a Vss of 0.58 L/kg.
Turning to `O=C(c1cnc2c(c1)ncn2-c1cccc(Cl)c1)N1CCCCC1` [drawing 103], the IC50 – broadly, the concentration needed to halve the response being measured – in data set [4] (setting [6]) is 1.5 nM. Moreover, the solubility (usually the concentration that dissolves in the medium under given conditions) in data set [5] amounted to 21 µM (≈ 7.16 µg/mL).
For the compound `O=C(c1ccc2c(c1)nnn2-c1cccc(Cl)c1)N1CCCCC1` [drawing 108], the IC50 in data set [4] (setting [6]) is 3.1 nM.
Still for that read-out and setting: the value for `COc1ccc(-n2cnc3cc(C(=O)N4CCC(F)CC4)ccc32)cc1` [drawing 109] was 43.7 nM; that for `COc1ccc(-n2cnc3cc(C(=O)N4CCCCC4)ccc32)cc1` [drawing 110] was 6.4 nM; that for `O=C(c1ccc2c(cnn2-c2cccc(Cl)c2)c1)N1CCCCC1` [drawing 111] was 5.8 nM.
On the same count and under the same terms, the value for `O=C(c1ccc2c(ccn2-c2cccc(Cl)c2)c1)N1CCCCC1` [drawing 112] was 0.5 nM.
On to `COc1cc(C(=O)N2CCCCC2)ccc1COc1ccccc1Cl` [drawing 115], for which the IC50 in data set [4] (setting [7]) stood at 8.5 nM.
As to `COc1ccccc1C(=O)N(C)c1ccc(C(=O)N2CCCCC2)cc1` [drawing 116], in data set [4] (setting [7]), the IC50 came to 2280 nM.
Regarding `O=C(c1ccc(COc2ccccc2Cl)cc1)N1CCCCC1` [drawing 117], in data set [4] (setting [7]), the concentration for half-maximal inhibition (IC50) is 18.6 nM.
`COc1ccccc1C(=O)Nc1ccc(C(=O)N2CCCCC2)cc1` [drawing 118]: in data set [4] (setting [7]), the half-maximal inhibitory concentration (IC50) was found to be 27.1 nM.
As for `O=C(c1ccc(COc2ccccc2Br)cc1)N1CCCCC1` [drawing 120], in data set [4] (setting [7]), the IC50 is 3.1 nM.
